Experimental data from patent publication US10295551B2, “Development and use of fluorescent probes of unbound bilirubin” (Alan Marc Kleinfeld, priority 2011, dated 2019).
Where two headings read alike, the source gives them in different places.

How the values were obtained:
Assay type in all cases: binding
[1] = target: T1, rI-FABP (SEQ ID NO: 3) variant BL22P1 B11 - 27C, MGI - KR14 - Y14R M18L K27C L38V V60R A73F R106L Q115R Y117D (Rattus norvegicus, UniProt P02693, A74F/K101R/K126R/K17R/K21R/K28C/K30R/K38R/K47R/K51R/K89R/K8R/K93R/K95R/L39V/L73A/M19L/Q116R/R107L/V61R/Y118D/Y15R)
T1 construct: 6xHis (C); made in house
T1 sequence (P02693 with tags, fused parts or gaps with the stated changes): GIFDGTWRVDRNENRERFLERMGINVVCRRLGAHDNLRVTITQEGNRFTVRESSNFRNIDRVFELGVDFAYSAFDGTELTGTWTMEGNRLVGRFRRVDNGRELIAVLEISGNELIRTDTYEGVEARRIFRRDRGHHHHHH
Procedure: (§1) Also described are analytical/mathematical methods for calibrating and using the bilirubin probes. Bilirubin probes are calibrated to determine their binding affinity for bilirubin (dissociation constant Kd) under conditions, such as temperature, pH and solution composition, that correspond to samples in which it is desired to know the unbound bilirubin concentration. Binding isotherms are performed in aqueous buffer by measuring the change in fluorescence of the bilirubin probes in response to increasing bilirubin concentrations (“titration data”). The set of fluorescence responses at each bilirubin concentration are fitted with an appropriate equation (“calibration equation”) that correctly describes the fluorescence response as a function of the bilirubin concentration, the probe concentration, specific spectroscopic characteristics, and the Kd.

[2] = target: T2, rI-FABP (SEQ ID NO: 3) variant BL22P1 B11 - 54C, MGI - KR14 - 14R 18L 27A 38V 54C 60R 73F 106L 115R 117D (Rattus norvegicus, UniProt P02693, A74F/K101R/K126R/K17R/K21R/K28A/K30R/K38R/K47R/K51R/K89R/K8R/K93R/K95R/L39V/L73A/M19L/N55C/Q116R/R107L/V61R/Y118D/Y15R); details: Table 5, Alexa Fluor 680 C2-maleimide
T2 construct: 6xHis (C); made in house
T2 sequence (P02693 with tags, fused parts or gaps with the stated changes): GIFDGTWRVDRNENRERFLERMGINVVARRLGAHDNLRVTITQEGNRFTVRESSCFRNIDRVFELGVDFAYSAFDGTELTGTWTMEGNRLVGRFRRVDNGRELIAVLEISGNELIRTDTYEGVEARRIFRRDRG
Procedure: as §1

[3] = target: T3, rI-FABP (SEQ ID NO: 3) variant BL22P1 B11 - 74C, MGI - KR14 - 14R 18L 27A 38V 60R 73F 74C 106L 115R 117D (Rattus norvegicus, UniProt P02693, A74F/D75C/K101R/K126R/K17R/K21R/K28A/K30R/K38R/K47R/K51R/K89R/K8R/K93R/K95R/L39V/L73A/M19L/Q116R/R107L/V61R/Y118D/Y15R); details: Table 5, Alexa Fluor 680 C2-maleimide
T3 construct: 6xHis (C); made in house
T3 sequence (P02693 with tags, fused parts or gaps with the stated changes): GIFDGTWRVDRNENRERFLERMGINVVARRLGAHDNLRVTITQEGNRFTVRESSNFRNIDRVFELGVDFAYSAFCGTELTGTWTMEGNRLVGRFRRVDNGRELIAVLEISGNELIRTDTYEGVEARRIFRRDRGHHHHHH
Procedure: as §1

[4] = target: T4, rI-FABP (SEQ ID NO: 3) variant BL22P1 B11 - 33C, MGI - KR14 - 14R 18L 27A 33C 38V 60R 73F 106L 115R 117D (Rattus norvegicus, UniProt P02693, A74F/H34C/K101R/K126R/K17R/K21R/K28A/K30R/K38R/K47R/K51R/K89R/K8R/K93R/K95R/L39V/L73A/M19L/Q116R/R107L/V61R/Y118D/Y15R)
T4 construct: 6xHis (C); made in house
T4 sequence (P02693 with tags, fused parts or gaps with the stated changes): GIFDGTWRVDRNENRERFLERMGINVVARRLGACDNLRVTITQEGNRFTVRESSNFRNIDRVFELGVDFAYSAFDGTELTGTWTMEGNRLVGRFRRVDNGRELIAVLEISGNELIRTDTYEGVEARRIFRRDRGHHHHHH
Procedure: as §1

[5] = Table 5, Alexa Fluor 680 C2-maleimide
[6] = Table 5, Alexa Fluor 750 C5-maleimide

Kd [1, 5]: 0.07 µM
Kd [1, 6]: 0.154 µM
Kd [2]: 0.16 µM
Kd [3]: 0.16 µM
Kd [4, 5]: 0.25 µM
Kd [4, 6]: 0.12 µM
Structure (SMILES): C=CC1=C(C)/C(=C/c2[nH]c(Cc3[nH]c(/C=C4\NC(=O)C(C)=C4C=C)c(C)c3CCC(=O)O)c(CCC(=O)O)c2C)NC1=O [bilirubin]
